Measured values published in US20030091553A1 (priority 2001, published 2003).
Where two headings read alike, the source gives them in different places.

Tests used:
[1] = Effect of the duration of administration of histamine; conditions: administered over longer than about 30 minutes
[2] = both histamine treated groups versus ethanol alone treated group
Source text: (§1) Animals and Treatments. Female Wistar rats weighing between 200 and 275 g were fed ad libitum continuously for up to 4 weeks a liquid diet (Dyets, Bethlehem, Pa. #710034) in which 35% of the calories were from corn oil, […], 5% were from vitamins and minerals, 11% were from maltose-dextrin, and 36% were from ethanol. An isocaloric maltose-dextrin diet (Dyets, #710270) was used for control. Rats were given a single dose of ethanol (5 g/kg body weight intragastrically) using an 18-gauge oral biomedical device (Popper & Sons, Inc., New Hyde Park, N.Y.) diluted in PBS (pH 7.2; GIBCO Laboratories Life Technologies Inc., Grand Island, N.Y.) every 24 hours. Control animals were gavaged with PBS alone. Either histamine dihydrochloride (0.5 mg/kg or 5.0 mg/kg; Sigma Chemical Co., St. Louis, Mo.) or vehicle (PBS, pH 7.4; GIBCO Laboratories Life Technologies Inc., Grand Island, N.Y.) was administered by subcutaneous injection twice daily for 4 weeks. Body weights of each rat were measured daily. Rats were housed in a pathogen-free facility and the institutional animal care and use committee approved the surgical procedures used in this study.

[3] = tested on: early alcohol-induced liver injury
Source text: as §1

[4] = tested on: CD3+T-cells, CD3-/56+ NK-cells and CD3+/56+ NK/T-cells; conditions: all cell types; induced by autologous monocytes or granulocytes; p<0.001
Source text: (§2) This example illustrates the effect of histamine on the lymphocytes isolated from human liver. […] All data are the mean±s.e.m. (n=15-30 blood donors).

[5] = tested on: drug-induced liver damage; conditions: oral tablet with isoniazid, six to twelve months, versus isoniazid alone
Protocol: An individual presenting with tuberculosis is prescribed an oral tablet comprising isoniazid and an effective dose of histamine for a period of six to twelve months. During the treatment period, the patient is monitored by a physician and lab tests to check the status of the patient's liver in response to the medication are performed.

[6] = tested on: early alcohol-induced liver injury; remark: listed apart in the source
Source text: as §1
Pathological Evaluation. After 2 and 4 weeks of ethanol treatment, livers were formalin fixed, embedded in paraffin, and stained with hematoxylin and eosin to assess steatosis, inflammation, and necrosis. Liver pathology was scored in a blinded manner by an outside expert as follows:
1. Degree of steatosis, score 0-4 (based on % of hepatocytes containing lipid)
2. Degree of inflammatory cell infiltration, score 0-4
3. Degree of degeneration and necrosis, score 0-4
The points for each grade of histological evaluation were compiled into a total score for each liver.
Severity scores for each finding in each group were summed and then divided by the number of animals evaluated per group. The groups were assigned scores as follows: None=0; […].

[7] = tested on: drug-induced liver damage; conditions: daily oral dose of 10 mg, patient on phenytoin three times a day
Protocol: An epileptic taking phenytoin three times a day to control seizures is supplemented with a daily oral dose of 10 mg of histamine dihydrochloride. Prior to supplementation with histamine dihydrochloride, the epileptic experiences liver damage as a consequence of taking phenytoin as confirmed by liver biopsy.

T-cells = conditions: 25 μM hydrogen peroxide, n=8, mean±s.e.m.
Source text: as §2

NK/T-cells = conditions: 25 μM hydrogen peroxide, n=8, mean±s.e.m.
Source text: as §2

NK-cells = conditions: 25 μM hydrogen peroxide, n=8, mean±s.e.m.
Source text: as §2

[8] = tested on: hepatotoxic effect of comfrey; assay: Catalase supplement in an individual consuming comfrey; type: in vivo, human; conditions: 8 mg/day
Protocol: The common herb comfrey can be administered as a poultice or tea drink to as an expectorant, demulcent, and/or tonic. However, consumption of comfrey has been linked to liver damage. In order to minimize the hepatotoxic effect of comfrey, an individual consuming comfrey as an herbal remedy is supplemented with 8 mg/day of catalase.

[9] = tested on: hepatic tissue damage secondary to pancreatitis; conditions: 100 μg/kg per day over one to two weeks, acute pancreatitis
Protocol: A patient presenting with acute pancreatitis is identified. The patient is administered 100 μg/kg histamine diphosphate per day over a period of one to two weeks. A liver biopsy is performed upon resolution of the pancreatitis.

Molecule: NCCc1c[nH]cn1 [Histamine, histamine]
- efficacy [1]: decreased or lack of efficacy
- recovery of body weight [2]: recovered their body weights more quickly
- pathology scores and serum transaminase levels ([3]; 0.5 mg/kg or 5 mg/kg twice daily s.c.): normalization
- ALT activity ([3]; preliminary results, ethanol control group 2-3 fold increase): somewhat normal ALT activity
- apoptosis of lymphocytes [4]: significantly prevented
- liver damage by laboratory tests [5]: no damage to the patient's liver
- liver injury ([6]; 0.5 mg/kg or 5 mg/kg twice daily s.c., highest dose most effective): blunted liver injury in a dose dependent manner
- Histologic Findings in Liver, Mean Group Severity Scores, Total Overall Score ([6]; High Histamine (5.0 mg/kg s.c. twice daily), Week 2 of ethanol treatment): 2.00
- Histologic Findings in Liver, Mean Group Severity Scores, Total Overall Score ([6]; High Histamine (5.0 mg/kg s.c. twice daily), Week 4 of ethanol treatment): 2.57
- Histologic Findings in Liver, Mean Group Severity Scores, Total Overall Score ([6]; Low Histamine (0.5 mg/kg s.c. twice daily), Week 2 of ethanol treatment): 3.33
- Histologic Findings in Liver, Mean Group Severity Scores, Total Overall Score ([6]; Low Histamine (0.5 mg/kg s.c. twice daily), Week 4 of ethanol treatment): 3.17
- appearance of excised livers ([6]; histamine treated, ethanol-fed rats): comparative in appearance to livers from the non-ethanol treated group

Molecule: Cl.Cl.NCCc1c[nH]cn1 [histamine dihydrochloride]
- liver damage [7]: further damage to the tissue of the liver is prevented

Molecule: OO [hydrogen peroxide]
- cells that became apoptotic (T-cells): 35±5%
- cells that became apoptotic (NK/T-cells): 78±7%
- cells that became apoptotic (NK-cells): 65±7%

Molecule: catalase
- hepatic injury [8]: No hepatic injury is observed

Molecule: histamine diphosphate
- damage to hepatic tissue (liver biopsy) [9]: prevents damage to hepatic tissue
- incidence of infection associated with pancreatitis [9]: lowers the incidence of infection associated with pancreatitis
